# Laboratory results as given in paper PMC3131451 (Journal of medicinal chemistry, 2010).
# Experiments:
# [1] = system: Hela cervical carcinoma cells; experiment: Anti-proliferative assay; details: Homo sapiens, 72 h, read-out: Cell-based Assay GI50 Hela
# PI-3Kα = PI-3Kα (Homo sapiens, UniProt P42336); experiment: SelectScreen Biochemical Kinase Profiling PI-3Kα; details: in vitro displacement assays against the PI3K isoforms
# PI3Kα (PIK3CA/PIK3R1) = PI3Kα (PIK3CA/PIK3R1) (Homo sapiens, UniProt P42336); experiment: LanthaScreen Eu kinase binding assay PI3Kα; details: for activity in words, biochemical and cell-based assays: both in the biochemical and cell-based assays (Table 1)
# PI3Kα (PIK3CA/PIK3R1), sequence (P42336 whole entry): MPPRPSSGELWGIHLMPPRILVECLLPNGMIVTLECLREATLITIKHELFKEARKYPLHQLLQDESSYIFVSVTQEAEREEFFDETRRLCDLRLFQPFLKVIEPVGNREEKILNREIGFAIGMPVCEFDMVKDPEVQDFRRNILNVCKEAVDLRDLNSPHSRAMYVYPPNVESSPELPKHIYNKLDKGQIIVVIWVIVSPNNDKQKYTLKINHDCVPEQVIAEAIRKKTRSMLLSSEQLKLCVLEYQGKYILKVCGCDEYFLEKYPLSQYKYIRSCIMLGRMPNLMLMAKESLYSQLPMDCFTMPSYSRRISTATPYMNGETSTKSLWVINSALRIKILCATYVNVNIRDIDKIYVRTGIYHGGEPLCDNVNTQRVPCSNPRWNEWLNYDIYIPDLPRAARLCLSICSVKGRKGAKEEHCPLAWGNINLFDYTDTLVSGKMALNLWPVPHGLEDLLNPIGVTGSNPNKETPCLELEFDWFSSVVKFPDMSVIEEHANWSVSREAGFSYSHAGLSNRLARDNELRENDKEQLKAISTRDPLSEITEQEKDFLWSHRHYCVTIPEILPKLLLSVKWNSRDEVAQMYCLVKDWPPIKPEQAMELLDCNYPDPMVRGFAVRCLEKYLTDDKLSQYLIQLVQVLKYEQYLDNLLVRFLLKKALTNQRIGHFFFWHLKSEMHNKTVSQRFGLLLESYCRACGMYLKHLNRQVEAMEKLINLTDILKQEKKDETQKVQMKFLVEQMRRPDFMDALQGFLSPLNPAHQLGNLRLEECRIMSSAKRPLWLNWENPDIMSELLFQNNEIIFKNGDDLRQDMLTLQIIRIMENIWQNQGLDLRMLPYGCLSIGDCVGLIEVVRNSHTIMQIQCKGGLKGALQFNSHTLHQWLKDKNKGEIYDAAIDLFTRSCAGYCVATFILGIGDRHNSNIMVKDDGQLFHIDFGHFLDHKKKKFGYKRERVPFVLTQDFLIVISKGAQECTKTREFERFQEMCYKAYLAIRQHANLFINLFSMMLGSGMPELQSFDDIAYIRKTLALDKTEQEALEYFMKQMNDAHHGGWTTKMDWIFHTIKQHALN
# PI3Kα (PIK3CA/PIK3R1), sequence (P27986 whole entry partner): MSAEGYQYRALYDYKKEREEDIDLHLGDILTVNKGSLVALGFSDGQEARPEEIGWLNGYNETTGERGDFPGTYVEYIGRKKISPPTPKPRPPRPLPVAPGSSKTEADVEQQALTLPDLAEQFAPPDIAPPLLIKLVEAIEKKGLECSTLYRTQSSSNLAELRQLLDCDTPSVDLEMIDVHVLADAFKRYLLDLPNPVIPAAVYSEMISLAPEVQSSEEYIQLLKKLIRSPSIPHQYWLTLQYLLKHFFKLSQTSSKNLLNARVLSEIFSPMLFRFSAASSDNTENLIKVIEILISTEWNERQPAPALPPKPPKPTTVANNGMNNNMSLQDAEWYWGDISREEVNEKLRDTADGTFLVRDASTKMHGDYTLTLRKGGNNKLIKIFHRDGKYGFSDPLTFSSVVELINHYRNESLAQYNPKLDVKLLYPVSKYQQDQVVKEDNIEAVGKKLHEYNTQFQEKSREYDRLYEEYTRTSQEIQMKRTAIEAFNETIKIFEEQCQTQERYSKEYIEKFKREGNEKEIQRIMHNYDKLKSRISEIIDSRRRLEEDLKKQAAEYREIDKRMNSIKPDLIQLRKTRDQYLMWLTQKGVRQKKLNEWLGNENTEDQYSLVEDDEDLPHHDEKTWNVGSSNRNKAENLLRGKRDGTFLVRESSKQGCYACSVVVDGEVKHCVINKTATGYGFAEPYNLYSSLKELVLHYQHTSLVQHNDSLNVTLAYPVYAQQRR
# PRAS40 [pS183] = experiment: LanthaScreen cellular assay PRAS40 [pSer183]; details: HEK293E, 1 h, read-out: Cell-based Assay IC50 PRAS40 [pS183]
# U87 glioblastoma cells = experiment: 3D culture assay, U87 spheroids; assay type: cell-based, human; details: 10 µM every day, total of 6 days
# 314 protein kinases = experiment: Selectivity panel against 314 protein kinases; assay type: biochemical; details: 10 µM, preliminary selectivity panel
# DNA-PK = DNA-PK (Homo sapiens, UniProt P78527); experiment: Selectivity panel, kinase inhibition; assay type: biochemical
# mTOR (FRAP1) = mTOR (FRAP1) (Homo sapiens, UniProt P42345); experiment: LanthaScreen Eu kinase binding assay mTOR; details: read-out: Kinase assay IC50 mTOR
# mTOR (FRAP1), sequence (P42345 1360-2549 limits assumed): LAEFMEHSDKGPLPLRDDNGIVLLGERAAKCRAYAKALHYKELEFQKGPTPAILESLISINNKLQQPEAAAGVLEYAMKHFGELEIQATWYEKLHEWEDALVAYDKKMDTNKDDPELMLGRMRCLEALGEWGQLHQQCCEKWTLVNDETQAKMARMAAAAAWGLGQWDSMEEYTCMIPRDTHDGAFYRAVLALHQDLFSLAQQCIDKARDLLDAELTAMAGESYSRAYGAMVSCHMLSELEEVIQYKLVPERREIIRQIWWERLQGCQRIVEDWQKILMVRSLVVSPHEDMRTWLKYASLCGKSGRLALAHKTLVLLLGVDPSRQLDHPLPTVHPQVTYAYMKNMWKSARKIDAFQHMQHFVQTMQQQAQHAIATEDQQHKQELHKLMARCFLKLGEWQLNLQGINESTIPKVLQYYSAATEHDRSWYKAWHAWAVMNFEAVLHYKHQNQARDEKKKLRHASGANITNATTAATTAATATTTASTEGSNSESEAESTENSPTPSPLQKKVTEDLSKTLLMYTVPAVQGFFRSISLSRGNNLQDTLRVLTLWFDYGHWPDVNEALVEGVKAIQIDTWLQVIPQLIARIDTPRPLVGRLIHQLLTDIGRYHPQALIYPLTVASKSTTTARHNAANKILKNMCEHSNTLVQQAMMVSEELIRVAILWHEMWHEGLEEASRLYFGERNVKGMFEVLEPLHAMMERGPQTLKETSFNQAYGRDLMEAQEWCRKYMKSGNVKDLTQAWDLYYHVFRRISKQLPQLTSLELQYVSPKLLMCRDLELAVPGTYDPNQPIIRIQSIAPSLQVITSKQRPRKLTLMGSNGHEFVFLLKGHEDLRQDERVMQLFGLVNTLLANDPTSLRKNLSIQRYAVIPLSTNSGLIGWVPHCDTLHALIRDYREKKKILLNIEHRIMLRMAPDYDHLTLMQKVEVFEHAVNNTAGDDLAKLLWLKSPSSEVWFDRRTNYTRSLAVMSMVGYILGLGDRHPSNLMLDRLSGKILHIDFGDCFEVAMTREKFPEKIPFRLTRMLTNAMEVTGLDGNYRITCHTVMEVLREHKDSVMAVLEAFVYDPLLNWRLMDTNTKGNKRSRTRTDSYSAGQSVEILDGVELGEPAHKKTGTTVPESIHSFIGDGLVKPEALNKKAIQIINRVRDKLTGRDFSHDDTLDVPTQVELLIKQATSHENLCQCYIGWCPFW
# PDK1 = target: T1, PDK1 (Homo sapiens, UniProt O15530); experiment: Z'-LYTE kinase activity assay PDK1; assay type: biochemical; details: read-out: Kinase assay IC50 PDK1, ATP at Km
# T1 sequence (O15530 1-556): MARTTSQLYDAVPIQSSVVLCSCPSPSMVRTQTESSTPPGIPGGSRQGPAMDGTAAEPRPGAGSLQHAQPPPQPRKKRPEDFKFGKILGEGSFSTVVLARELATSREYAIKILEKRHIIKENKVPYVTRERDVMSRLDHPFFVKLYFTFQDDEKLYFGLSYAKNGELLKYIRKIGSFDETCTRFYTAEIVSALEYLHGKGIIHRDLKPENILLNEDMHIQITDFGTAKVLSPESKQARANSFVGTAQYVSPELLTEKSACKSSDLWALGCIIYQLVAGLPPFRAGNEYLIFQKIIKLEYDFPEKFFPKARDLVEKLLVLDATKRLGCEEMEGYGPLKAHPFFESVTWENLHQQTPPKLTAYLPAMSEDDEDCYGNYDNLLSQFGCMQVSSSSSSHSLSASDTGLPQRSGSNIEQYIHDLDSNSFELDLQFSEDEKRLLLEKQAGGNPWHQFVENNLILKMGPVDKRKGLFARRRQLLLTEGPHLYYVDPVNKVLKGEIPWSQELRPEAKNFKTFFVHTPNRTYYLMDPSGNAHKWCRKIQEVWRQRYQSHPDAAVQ
# PI-3Kα, sequence (P42336 whole entry, canonical isoform): as the sequence (P42336 whole entry) above
# PI-3Kα, sequence (P27986 whole entry partner, canonical isoform): as the sequence (P27986 whole entry partner) above
Compound,IC50 (AKT [pT308]),PI3Kα activity in words (PI3Kα (PIK3CA/PIK3R1)),also measured
"Nc1ccc(C#Cc2n[nH]c3ccccc23)cc1 [Compound 6, 4-((1H-indazol-3-yl)ethynyl)aniline]",17.1 µM,–,GI50 [1]: 3.6 µM; selectivity for α isoform over the β and γ isoforms (PI-3Kα): about 100 fold
"C(#Cc1n[nH]c2ncccc12)c1ccncc1 [Compound 20, 3-(pyridin-4-ylethynyl)-1H-pyrazolo[3,4-b]pyridine]",–,–,loss of PI3Kα activity versus compound 10 (PI3Kα (PIK3CA/PIK3R1); pyrazolopyridine analog compared with indazole 10): 10 fold
"CN(C)CC#Cc1n[nH]c2ccccc12 [Compound 11, 3-(1H-indazol-3-yl)-N,N-dimethylprop-2-yn-1-amine]",> 100 µM,–,"activity in words, biochemical and cell-based assays (PI3Kα (PIK3CA/PIK3R1)): inactive"
"C(#Cc1n[nH]c2ccccc12)c1ccccc1 [Compound 7, 3-(phenylethynyl)-1H-indazole]",> 100 µM,poor activity,–
"Fc1cc(F)cc(C#Cc2n[nH]c3ccccc23)c1 [Compound 8, 3-((3,5-difluorophenyl)ethynyl)-1H-indazole]",> 100 µM,poor activity,IC50 (PRAS40 [pS183]): > 200 µM
"C(#Cc1n[nH]c2ccccc12)c1ccncc1 [Compound 10, 3-(pyridin-4-ylethynyl)-1H-indazole]",–,–,U87 spheroid cell growth/proliferation (spheroid volumes) (U87 glioblastoma cells): strongly suppressed cell growth/proliferation; share of 314 protein kinases showing ≥ 50% inhibition (314 protein kinases): less than 10%; inhibition at 10 µM (DNA-PK): > 50%
"FC(F)(F)c1cc(C#Cc2n[nH]c3ccccc23)cc(C(F)(F)F)c1 [Compound 17, 3-((3,5-bis(trifluoromethyl)phenyl)ethynyl)-1H-indazole]",> 100 µM,poor activity,–
"C(#CC1CCCC1)c1n[nH]c2ccccc12 [Compound 14, 3-(cyclopentylethynyl)-1H-indazol]",> 50 µM,–,"activity in words, biochemical and cell-based assays (PI3Kα (PIK3CA/PIK3R1)): inactive"
"C(#Cc1n[nH]c2ccccc12)c1ccccn1 [Compound 12, 3-(pyridin-2-ylethynyl)-1H-indazole]",> 100 µM,–,–
"N#Cc1ccc(C#Cc2n[nH]c3ccccc23)cc1 [Compound 19, 4-((1H-indazol-3-yl)ethynyl)benzonitrile]",> 50 µM,poor activity,–
"C(#CC1CC1)c1n[nH]c2ccccc12 [Compound 15, 3-(cyclopropylethynyl)-1H-indazole]",> 50 µM,–,"activity in words, biochemical and cell-based assays (PI3Kα (PIK3CA/PIK3R1)): inactive"
"3-(pyridin-2-ylethynyl)-1H-pyrazolo[3,4-b]pyridine [Compound 21]",–,–,"IC50 (PI3Kα (PIK3CA/PIK3R1); read-out: Kinase assay IC50 PI3Kα, LanthaScreen Eu kinase binding assay): 9 µM; IC50 (mTOR (FRAP1)): 5 µM; IC50 (PDK1): > 50 µM"
"Nc1ccccc1C#Cc1n[nH]c2ccccc12 [Compound 16, 2-((1H-indazol-3-yl)ethynyl)aniline]",> 100 µM,–,–
"C(#Cc1n[nH]c2ccccc12)c1ccsc1 [Compound 18, 3-(thiophen-3-ylethynyl)-1H-indazole]",> 100 µM,poor activity,–
